Measured values published in ChEMBL document CHEMBL2074272, “Proton-coupled oligopeptide transport by rat renal cortical brush border membrane vesicles: a functional analysis using ACE inhibitors to determine the isoform of the transporter” (Biochim Biophys Acta, 1998).

Tests used:
[1] = target: T1, Solute carrier family 15 member 1 (Rattus norvegicus, UniProt P51574); assay: TP_TRANSPORTER: inhibition of D-Phe-L-Gln uptake in Xenopus laevis oocytes; type: functional, cell-based, Oocyte
T1 sequence (P51574 whole entry): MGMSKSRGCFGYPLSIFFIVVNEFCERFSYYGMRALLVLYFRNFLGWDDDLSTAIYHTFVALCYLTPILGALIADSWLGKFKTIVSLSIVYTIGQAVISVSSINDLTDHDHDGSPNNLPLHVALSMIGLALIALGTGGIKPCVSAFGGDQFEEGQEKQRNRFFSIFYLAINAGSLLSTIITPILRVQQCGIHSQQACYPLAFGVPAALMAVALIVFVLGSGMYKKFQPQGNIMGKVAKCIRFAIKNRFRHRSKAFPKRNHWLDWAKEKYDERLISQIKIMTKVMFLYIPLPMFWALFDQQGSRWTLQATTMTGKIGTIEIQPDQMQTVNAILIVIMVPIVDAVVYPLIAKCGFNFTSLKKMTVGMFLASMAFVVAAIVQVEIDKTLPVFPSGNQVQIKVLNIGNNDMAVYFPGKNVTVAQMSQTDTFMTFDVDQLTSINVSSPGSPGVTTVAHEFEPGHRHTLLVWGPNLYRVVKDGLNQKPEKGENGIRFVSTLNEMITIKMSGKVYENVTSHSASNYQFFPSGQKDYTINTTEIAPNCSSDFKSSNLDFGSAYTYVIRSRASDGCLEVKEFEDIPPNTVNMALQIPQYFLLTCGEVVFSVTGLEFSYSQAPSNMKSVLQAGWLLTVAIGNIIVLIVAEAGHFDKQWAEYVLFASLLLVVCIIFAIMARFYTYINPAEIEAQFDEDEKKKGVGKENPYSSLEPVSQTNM

[2] = target: T2, Solute carrier family 15 member 1 (Rattus norvegicus) (UniProt P51574); assay: TP_TRANSPORTER: uptake in Xenopus laevis oocytes; type: functional, cell-based; settings: Oocyte
T2 sequence (whole entry): T1 sequence (P51574 whole entry)

Compound	Ki [1] [mM]	Activity [2]
C[C@H](CS)C(=O)N1CCC[C@H]1C(=O)O [CAPTOPRIL]	8.7	–
NC(=O)CC[C@H](NC(=O)[C@H](N)Cc1ccccc1)C(=O)O	–	substrate [+]
CCOC(=O)[C@H](CCc1ccccc1)N[C@@H](C)C(=O)N1CCC[C@H]1C(=O)O [ENALAPRIL]	4.3	–
